Consider one compound from patent publication US20130197030A1, “Substituted 1,3-Dioxanes and There Uses” (Evolva Sa, priority 2007, published 2013).

What is called IC50 is the concentration that inhibits the measured activity by half. In general, Ki refers to the dissociation constant of the complex between target and ligand, obtained from inhibition or displacement. Usually inhibition stands for the share of the control response that was lost under treatment.

For data set [1], the target named is T1, Thromboxane receptor (TP) (Homo sapiens, UniProt P21731).
T1 construct: expressed in transfected cells; host or cells: HEK-293 cells
T1 sequence (P21731 1-343): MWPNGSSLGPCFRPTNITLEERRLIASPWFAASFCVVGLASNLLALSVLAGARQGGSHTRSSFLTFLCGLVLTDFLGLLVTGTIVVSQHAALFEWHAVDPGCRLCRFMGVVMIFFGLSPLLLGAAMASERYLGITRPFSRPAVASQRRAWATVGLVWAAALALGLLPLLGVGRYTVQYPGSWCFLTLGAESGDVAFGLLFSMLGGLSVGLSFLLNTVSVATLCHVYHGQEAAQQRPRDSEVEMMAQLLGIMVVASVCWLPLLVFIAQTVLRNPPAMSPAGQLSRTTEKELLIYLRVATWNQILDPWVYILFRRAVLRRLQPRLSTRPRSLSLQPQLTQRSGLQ
Briefly: TP receptor radioligand binding. The following applies: Human recombinant HEK-293 cells, 5 nM [3H] SQ-29548. The method, then:
The compounds were tested on radioligand binding assays for thromboxane receptor binding essentially as described by Hedberg et al. (1988) J. Pharmacol. Exp. Ther. 245:786-792 and Saussy et al. (1986) J. Biol. Chem. 261: 3025-3029 according to the following:
TP Receptor Radioligand Binding Studies:
Human recombinant HEK-293 cells,
Incubation Time, Temp: 30 minutes at 25° C.
Incubation Buffer: 50 mM Tris-HCl, pH 7.4, 154 mM NaCl
Non-Specific Ligand: 1 μM SQ-29548
The data were transformed to semi-log and then analysed using non-linear regression to a four-parameter dose-response curve Y=Bottom+(Top−Bottom)/(1+10̂((LogEC50−X)*HillSlope)) using the log(agonist) vs. response—Variable slope function of GraphPad Prism software (http://graphpad.com/help/prism5/prism5help.html?usingnonlinear_regression_step_by_s.htm).

The subject of data set [2] is U-46619-induced platelet aggregation. Briefly: TP receptor platelet aggregation, rabbit. The format is cell-based, New Zealand Rabbit. On the procedure:
Thrombosis Research 33:277-288.
TP Receptor Platelet Aggregation—Rabbit:
New Zealand Rabbit (2.75±0.25 kg) platelet rich plasma
Assay: Inhibition of 1.5 μM U-46619-induced platelet aggregation Incubation Time, Temp: 5 minutes at 37° C. Incubation Buffer Trisodium Citrate (0.13 M)-treated platelet rich plasma
Time of Assessment: 5 minutes
Quantification Method Optical Density Change

The next data set concerns KKA^y mice. Kind of data set: In vivo effect on serum glucose and other parameters in KKA^y mice. Conditions: dose not given. On the procedure:
52 male KKA^y mice are obtained commercially (e.g., from Clea Japan) at an age of 6 weeks and put on a high fat diet upon arrival. Individual mice were housed in IVC Type II cages during both the acclimatization and the experimental phase. Both food (high fat diet) and water are supplied ad libitum.
1 animal per cage. […] Lights on at 06:00 a.m. Temperature: 21-25° C. Relative humidity target range: 55-60%.
Mice were randomized into treatment groups according to their 4-h fasting blood glucose.
4 hours after the last administration, non-fasting conditions.
Gamma irradiated high fat diet is commercially available (e.g., Research Diets, Inc. New Brunswick, N.J. (Product # D12266BI)).
Blood is collected into heparin containing glass capillaries which are subsequently centrifuged in a “Haematokrit 24” centrifuge (Hettich) at 15′200×g for 10 minutes at room temperature to obtain the hematocrit value.
The following serum parameters are determined on a COBAS INTEGRA 800 auto analyzer (Roche Diagnostics, Switzerland) using the reagents and protocols provided by the supplier.
All measurements are made on Day 14 of administration, except for the food intake and body weight measurements that are made on Day 12.

Regarding `O=C(O)CC/C=C\CC1COC(c2coc3ccc(Cl)cc3c2=O)OC1c1ccccc1O` (racemic) [Compound 3, (Z)-6-(2-(6-Chloro-4-oxo-4H-chromen-3-yl)-4-(2-hydroxyphenyl)-1,3-dioxan-5-yl)hex-4-enoic acid], in data set [1], the 50% inhibitory concentration (IC50) was determined as 15.2 nM and the Ki was determined as 9.9 nM. Further, in data set [1] (at 10 μM), the inhibition at 10 µM was found to be 97%. Besides, in data set [2], the “Inhibition of platelet aggregation (in words)” value is reported as “potent inhibitors of platelet aggregation”. For the same compound, in data set [2] (Oryctolagus cuniculus, at 30 μM, 1.5 μM U-46619, platelet rich plasma), at 30 µM the inhibition was 100%. Also, in the data set with KKA^y mice (14-day oral gavage BID), the FFA result is “decreases the FFA”, the HbA1c levels result is recorded as “decreased” and the Heart weight result is given as “has no effect on heart weight”. The Body weight entry in the data set on KKA^y mice (oral gavage BID) is “do not alter body weight”.
